Here are results for 5 compounds from US20240287138A1, “CYCLIC PEPTIDES FOR INHIBITING TNF RECEPTOR 1 ACTIVITY” (Merck Sharp & Dohme LLC, priority 2023, published 2024).

Read-outs that look alike come from different tables or passages of the source. Numbered stars: 1 amine (or outer) side, 2 acyl side, 3 side chain; on linkers, the order of the positions; unused ones are H or OH. Bridge positions count the residues as written; N and C are the ends. Square brackets hold non-standard residues; d marks the D form. Peptide text beside a SMILES is read from it. * marks the point of attachment. Trp(βS-Me,7-OMe) = COc1cccc2c([C@H](C)[C@H](N)C(=O)O)c[nH]c12; Trp(4-Cl) = N[C@@H](Cc1c[nH]c2cccc(Cl)c12)C(=O)O; Trp(7-Cl) = N[C@@H](Cc1c[nH]c2c(Cl)cccc12)C(=O)O; Phe(4-COOH) = N[C@@H](Cc1ccc(C(=O)O)cc1)C(=O)O; Trp(7-aza) = N[C@@H](Cc1c[nH]c2ncccc12)C(=O)O; X10 = O=C([C@H](Cc1ccnc2ccccc12)N[*:1])[*:2]; Phe(4-CH2NH2) = NCc1ccc(C[C@H](N)C(=O)O)cc1; αMeW = C[C@](N)(Cc1c[nH]c2ccccc12)C(=O)O; X1 = O=C([C@@H]1CC[C@H](N[*:1])C1)[*:2]; X6 = O=C([C@@H](N[*:1])C1(O)CC1)[*:2]; Pip(4-aza) = O=C(O)[C@@H]1CNCCN1; 4Pal = N[C@@H](Cc1ccncc1)C(=O)O; NMeE = CN[C@@H](CCC(=O)O)C(=O)O; αMeS = C[C@](N)(CO)C(=O)O; Carboxymethyl = O=C(O)C*; Nle = CCCC[C@H](N)C(=O)O; Sar = CNCC(=O)O

This test concerns the target T1, TNFα-induced NF-κB signal transduction pathway (TNFR1 signaling) in THP-1 cells (Homo sapiens, UniProt P19438).
T1 sequence (P19438 30-455): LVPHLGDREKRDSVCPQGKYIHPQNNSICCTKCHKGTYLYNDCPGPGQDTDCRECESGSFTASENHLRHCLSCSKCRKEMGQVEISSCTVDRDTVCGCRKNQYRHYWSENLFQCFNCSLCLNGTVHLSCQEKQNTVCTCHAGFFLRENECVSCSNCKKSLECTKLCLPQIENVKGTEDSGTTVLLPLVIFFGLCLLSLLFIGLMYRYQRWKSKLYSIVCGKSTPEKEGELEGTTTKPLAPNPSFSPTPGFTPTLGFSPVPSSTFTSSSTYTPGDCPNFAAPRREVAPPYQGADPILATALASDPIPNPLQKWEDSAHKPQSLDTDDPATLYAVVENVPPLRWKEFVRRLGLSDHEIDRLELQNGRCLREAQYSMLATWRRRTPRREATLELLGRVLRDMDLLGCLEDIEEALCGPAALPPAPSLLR
Briefly: THP-1 Lucia NF-κB reporter cell assay, inhibition of TNFα-induced NF-κB signaling. It counts as cell-based. The essentials: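 IC50 from a 4-parameter logistic fit of secreted luciferase luminescence (QUANTI-Luc), normalised to min/max controls. Reporter THP-1 cells were exposed to peptides for 1 h at 37 °C before 10 ng/mL TNFα (final) was added overnight (16–18 h).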

Where [1] appears, read: THP-1 NF-κB Lucia reporter cells, 10 ng/mL TNFα, 16-18 h, secreted luciferase; read-out: THP-1 IC50.

For the compound `C[C@@]1(CO)NC(=O)[C@H](Cc2c[nH]c3ncccc23)NC(=O)[C@H](Cc2ccncc2)NC(=O)[C@H](CC(N)=O)NC(=O)[C@H]2CCCN2C(=O)[C@H](Cc2ccnc3ccccc23)NC(=O)[C@H](CO)NC(=O)[C@H](Cc2ccncc2)NC(=O)[C@H](CCC(N)=O)NC(=O)CSC[C@@H](C(N)=O)NC(=O)[C@H](Cc2c[nH]c3cccc(Cl)c23)NC(=O)[C@@H]2CCCN2C(=O)[C@H](Cc2ccc(O)cc2)NC(=O)[C@H](Cc2ccc(C(=O)O)cc2)NC1=O` [SEQ ID NO. 278] ({CH2CO}-Q[4Pal]S[X10][dP]N[4Pal][Trp(7-aza)][αMeS][Phe(4-COOH)]YP[Trp(4-Cl)]C-NH2; thioether N-14), under setting [1], the IC50 amounted to 54.5 nM.

Turning to `CCCC[C@@H]1NC(=O)CSC[C@@H](C(N)=O)NC(=O)[C@](C)(Cc2c[nH]c3ccccc23)NC(=O)CN(C)C(=O)[C@H](Cc2ccc(O)cc2)NC(=O)[C@H](Cc2ccc(C(=O)O)cc2)NC(=O)[C@](C)(CO)NC(=O)[C@H](Cc2c[nH]c3c(Cl)cccc23)NC(=O)[C@H](Cc2ccncc2)NC(=O)[C@H](CC(N)=O)NC(=O)[C@H](CCC(=O)O)N(C)C(=O)[C@H](Cc2c[nH]c3ncccc23)NC(=O)[C@H](C2(O)CC2)NC(=O)[C@H](Cc2ccncc2)NC1=O` [SEQ ID NO. 281] ({CH2CO}-[Nle][4Pal][X6][Trp(7-aza)][NMeE]N[4Pal][Trp(7-Cl)][αMeS][Phe(4-COOH)]Y[Sar][αMeW]C-NH2; thioether N-14), the IC50 under setting [1] came out at 8.4 nM.

Take `CCCC[C@@H]1NC(=O)CSC[C@@H](C(N)=O)NC(=O)[C@](C)(Cc2c[nH]c3ccccc23)NC(=O)CN(C)C(=O)[C@H](Cc2ccc(O)cc2)NC(=O)[C@H](Cc2ccc(OCC(=O)O)cc2)NC(=O)[C@](C)(CO)NC(=O)[C@H](Cc2c[nH]c3c(Cl)cccc23)NC(=O)[C@H](Cc2ccncc2)NC(=O)[C@H](CC(N)=O)NC(=O)[C@H](CCC(=O)O)N(C)C(=O)[C@H](Cc2c[nH]c3ncccc23)NC(=O)[C@H](CO)NC(=O)[C@H](Cc2ccc(CN)cc2)NC1=O` [SEQ ID NO. 283] ({CH2CO}-[Nle][Phe(4-CH2NH2)]S[Trp(7-aza)][NMeE]N[4Pal][Trp(7-Cl)][αMeS]Y(Carboxymethyl)Y[Sar][αMeW]C-NH2; thioether N-14): under setting [1], the IC50 came to 6.4 nM.

Consider `CCCC[C@@H]1NC(=O)[C@@H]2CC[C@@H](C2)NC(=O)[C@H]([C@@H](C)c2c[nH]c3c(OC)cccc23)NC(=O)CN(C)C(=O)[C@H](Cc2ccc(O)cc2)NC(=O)[C@H](Cc2ccc(C(=O)O)cc2)NC(=O)[C@](C)(CO)NC(=O)[C@H](Cc2c[nH]c3c(Cl)cccc23)NC(=O)[C@H](Cc2ccc(C(=O)O)cc2)NC(=O)[C@H](CC(N)=O)NC(=O)[C@H](CCC(=O)O)N(C)C(=O)[C@H](Cc2c[nH]c3ccccc23)NC(=O)[C@@H]2CNCCN2C(=O)[C@H](Cc2ccncc2)NC1=O` [SEQ ID NO. 288] (cyclo([4Pal][Pip(4-aza)]W[NMeE]N[Phe(4-COOH)][Trp(7-Cl)][αMeS][Phe(4-COOH)]Y[Sar][Trp(βS-Me,7-OMe)][X1][Nle])), for which, under setting [1], the IC50 is 4.2 nM. With `CN1CC(=O)N[C@@H](CC(N)=O)C(=O)N[C@@H](Cc2ccc(O)cc2)C(=O)N[C@@H](Cc2c[nH]c3ccccc23)C(=O)N[C@@H](CO)C(=O)N[C@@H](Cc2ccc(O)cc2)C(=O)N[C@@H](Cc2ccc(O)cc2)C(=O)N(C)CC(=O)N[C@@H](Cc2c[nH]c3ccccc23)C(=O)N[C@H](C(=O)NCC(=O)N[C@@H](CCC(=O)O)C(=O)N[C@@H](CCC(=O)O)C(N)=O)CSCC(=O)N[C@@H](Cc2ccccc2)C(=O)N[C@@H](Cc2ccc(O)cc2)C(=O)N[C@@H](CO)C(=O)N[C@@H](Cc2c[nH]c3ccccc23)C1=O` [SEQ ID NO. 289] ({CH2CO}-FYSW[Sar]NYWSYY[Sar]WCGEE-NH2; thioether N-14), the IC50 (read-out: THP-1 IC50; THP-1 NF-κB Lucia reporter cells, 10 ng/mL TNFα, 16-18 h, secreted luciferase) was 36.4 nM.

One may read the IC50 as the concentration at which inhibition is half-maximal.
